Among the data in US20250171437A1 (Agios Pharmaceuticals,Inc., priority 2022, published 2025) are AC50 values, retold here.

A value given as a limit tells only on which side of the number the result lay.

The target of the first experiment is T1, human PAH with the R408W mutation (A375 R408W cells) (Homo sapiens, UniProt P00439, R408W).
T1 construct: expressed in transfected cells
T1 sequence (P00439 1-452 R408W): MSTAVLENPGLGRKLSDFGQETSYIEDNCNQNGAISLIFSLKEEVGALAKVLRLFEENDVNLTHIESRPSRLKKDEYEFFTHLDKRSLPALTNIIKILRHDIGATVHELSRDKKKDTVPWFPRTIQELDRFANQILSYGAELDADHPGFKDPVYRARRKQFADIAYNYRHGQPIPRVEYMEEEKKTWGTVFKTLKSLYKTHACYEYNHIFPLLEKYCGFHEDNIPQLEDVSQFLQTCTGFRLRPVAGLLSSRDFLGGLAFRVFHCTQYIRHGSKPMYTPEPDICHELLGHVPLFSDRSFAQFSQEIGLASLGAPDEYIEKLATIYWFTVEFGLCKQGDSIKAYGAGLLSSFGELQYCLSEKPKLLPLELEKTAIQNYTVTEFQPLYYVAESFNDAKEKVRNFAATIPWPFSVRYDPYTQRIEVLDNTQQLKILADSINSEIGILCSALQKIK
Nature of the experiment: Cell Based Phenylalanine Flux Assay. The note with it: A375 R408W cells; 24 hrs with compound, then 20 μM sepiapterin and 800 μM 13C9,15N-Phenylalanine for 4 hours; 13C-Tyrosine by LC-MS; average where tested multiple times. The gist of the method:
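Puromycin-selected A375 line, lentiviral hPAH R408W; cmpd 24 h, 37 °C, 5% CO2, 0.5% DMSO; then 20 μM sepiapterin + 800 μM 13C9,15N-Phe, 4 h; media extracted in 80% MeCN; 13C-Tyr by LC-MS; AC50 from 10-pt curves.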
By AC50 is commonly meant the concentration giving half of the maximal activity seen. Regarding `Cc1cc(C(=O)N2CCc3[nH]cnc3[C@H]2c2nc3cccc(F)c3o2)n(C)n1` [Example 769, (S)-(1,3-dimethyl-1H-pyrazol-5-yl)(4-(7-fluorobenzo[d]oxazol-2-yl)-6,7-dihydro-1H-imidazo[4,5-c]pyridin-5(4H)-yl)methanone], the half-maximal activity concentration (AC50) is 1 to 5 µM.
Take `Cn1cnc(-c2nc(C(F)F)c(C(=O)N3CCc4[nH]cnc4[C@@H]3c3nc4ccccc4o3)o2)c1` [Example 785, (R)-(4-(benzo[d]oxazol-2-yl)-6,7-dihydro-1H-imidazo[4,5-c]pyridin-5(4H)-yl)(4-(difluoromethyl)-2-(1-methyl-1H-imidazol-4-yl)oxazol-5-yl)methanone]: the AC50 was not below 5 µM.
Take `COc1ccc2c(C(=O)N3CCc4[nH]cnc4[C@@H]3c3nc4cc(F)ccc4o3)cnn2c1` [Example 74, (R)-(4-(5-fluorobenzo[d]oxazol-2-yl)-6,7-dihydro-1H-imidazo[4,5-c]pyridin-5(4H)-yl)(6-methoxypyrazolo[1,5-a]pyridin-3-yl)methanone]: the AC50 is not below 5 µM.
With `Cn1cc(C(=O)N2CCc3[nH]cnc3[C@@H]2c2nc3cc(F)ccc3o2)c(C(F)F)n1` [Example 96, (R)-(3-(difluoromethyl)-1-methyl-1H-pyrazol-4-yl)(4-(5-fluorobenzo[d]oxazol-2-yl)-6,7-dihydro-1H-imidazo[4,5-c]pyridin-5(4H)-yl)methanone], the AC50 was in the range of 1 to 5 µM.
For the molecule `O=C(c1cnn2cc(F)c(Cl)cc12)N1CCc2[nH]cnc2[C@H]1c1nc2cc(F)ccc2o1` [Example 219, (S)-(5-chloro-6-fluoropyrazolo[1,5-a]pyridin-3-yl)(4-(5-fluorobenzo[d]oxazol-2-yl)-6,7-dihydro-1H-imidazo[4,5-c]pyridin-5(4H)-yl)methanone], the half-maximal activity concentration (AC50) is not above 0.5 µM.
As to `Cc1cccc2nc([C@H]3c4nc[nH]c4CCN3C(=O)c3cnco3)oc12` [Example 612, (R)-(4-(7-methylbenzo[d]oxazol-2-yl)-6,7-dihydro-1H-imidazo[4,5-c]pyridin-5(4H)-yl)(oxazol-5-yl)methanone], the AC50 was in the range of 1 to 5 µM.
Take `O=C(c1cnn(CC(F)(F)F)c1C(F)F)N1CCc2[nH]cnc2[C@@H]1c1nc2cc(F)ccc2o1` [Example 184, (R)-(5-(difluoromethyl)-1-(2,2,2-trifluoroethyl)-1H-pyrazol-4-yl)(4-(5-fluorobenzo[d]oxazol-2-yl)-6,7-dihydro-1H-imidazo[4,5-c]pyridin-5(4H)-yl)methanone]: the concentration at half-maximal activity (AC50) is 1 to 5 µM.
As to `Cn1cncc1-c1nc(C(F)F)c(C(=O)N2CCc3[nH]cnc3[C@@H]2c2nc3ccccc3o2)o1` [Example 763, (R)-(4-(benzo[d]oxazol-2-yl)-6,7-dihydro-1H-imidazo[4,5-c]pyridin-5(4H)-yl)(4-(difluoromethyl)-2-(1-methyl-1H-imidazol-5-yl)oxazol-5-yl)methanone], the AC50 lay within 1 to 5 µM.
Same read-out and setting: the value for `Cn1nc(C(F)(F)F)nc1C(=O)N1CCc2[nH]cnc2[C@@H]1c1nc2cccc(F)c2o1` [Example 280, (R)-(4-(7-fluorobenzo[d]oxazol-2-yl)-6,7-dihydro-1H-imidazo[4,5-c]pyridin-5(4H)-yl)(1-methyl-3-(trifluoromethyl)-1H-1,2,4-triazol-5-yl)methanone] was 1 to 5 µM; that for `O=C(c1ccnn1C(F)F)N1CCc2[nH]cnc2[C@H]1c1nc2cc(F)cc(F)c2o1` [Example 609] was 0.5 to 1 µM; that for `CC(C)(C)c1ncc(C(=O)N2CCc3[nH]cnc3[C@H]2c2nc3cc(F)ccc3o2)s1` [Example 17, (S)-(2-(tert-butyl)thiazol-5-yl)(4-(5-fluorobenzo[d]oxazol-2-yl)-6,7-dihydro-1H-imidazo[4,5-c]pyridin-5(4H)-yl)methanone] was not above 0.5 µM.
Take `Cc1ccc(F)c2oc([C@@H]3c4nc[nH]c4CCN3C(=O)c3ocnc3C(F)F)nc12` [Example 898, (S)-(4-(difluoromethyl)oxazol-5-yl)(4-(7-fluoro-4-methylbenzo[d]oxazol-2-yl)-6,7-dihydro-1H-imidazo[4,5-c]pyridin-5(4H)-yl)methanone]: the concentration at half-maximal activity (AC50) is not above 0.5 µM.
Regarding `Cc1ncoc1C(=O)N1CCc2[nH]cnc2[C@H]1c1nc2cccc(F)c2o1` [Example 569, (S)-(4-(7-fluorobenzo[d]oxazol-2-yl)-6,7-dihydro-1H-imidazo[4,5-c]pyridin-5(4H)-yl)(4-methyloxazol-5-yl)methanone], the half-maximal activity concentration (AC50) was not above 0.5 µM.
For the molecule `CC(C)(O)c1nc(Cl)c(C(=O)N2CCc3[nH]cnc3[C@@H]2c2nc3cc(F)ccc3o2)o1` [Example 130, (R)-(4-chloro-2-(2-hydroxypropan-2-yl)oxazol-5-yl)(4-(5-fluorobenzo[d]oxazol-2-yl)-6,7-dihydro-1H-imidazo[4,5-c]pyridin-5(4H)-yl)methanone], the AC50 was not below 5 µM.
Same read-out and setting: the value for `Cc1ccc2oc([C@H]3c4nc[nH]c4CCN3C(=O)c3oc(C(C)(C)O)nc3C)nc2c1` [Example 332, (R)-(2-(2-hydroxypropan-2-yl)-4-methyloxazol-5-yl)(4-(5-methylbenzo[d]oxazol-2-yl)-6,7-dihydro-1H-imidazo[4,5-c]pyridin-5(4H)-yl)methanone] was 1 to 5 µM; that for `O=C(c1cnn2cc(N3CCN(C4CC4)CC3)ccc12)N1CCc2[nH]cnc2[C@@H]1c1nc2cc(F)ccc2o1` [Example 134, (R)-(6-(4-cyclopropylpiperazin-1-yl)pyrazolo[1,5-a]pyridin-3-yl)(4-(5-fluorobenzo[d]oxazol-2-yl)-6,7-dihydro-1H-imidazo[4,5-c]pyridin-5(4H)-yl)methanone] was not below 5 µM; that for `Cn1nc(C(F)(F)F)nc1C(=O)N1CCc2[nH]cnc2[C@H]1c1nc2ccccc2o1` [Example 683, (S)-(4-(benzo[d]oxazol-2-yl)-6,7-dihydro-1H-imidazo[4,5-c]pyridin-5(4H)-yl)(1-methyl-3-(trifluoromethyl)-1H-1,2,4-triazol-5-yl)methanone] was 1 to 5 µM.
Still for that read-out and setting: with `CC(C)(O)c1nc(C(F)F)c(C(=O)N2CCc3[nH]cnc3[C@@H]2c2nc3c(F)c(F)ccc3o2)o1` [Example 348, (R)-(4-(4,5-difluorobenzo[d]oxazol-2-yl)-6,7-dihydro-1H-imidazo[4,5-c]pyridin-5(4H)-yl)(4-(difluoromethyl)-2-(2-hydroxypropan-2-yl)oxazol-5-yl)methanone] the figure was 1 to 5 µM.
`Cc1ccc2nc([C@@H]3c4nc[nH]c4CCN3C(=O)c3nnc(-c4cnn(C(F)F)c4)o3)oc2c1` [Example 681, (S)-(5-(1-(difluoromethyl)-1H-pyrazol-4-yl)-1,3,4-oxadiazol-2-yl)(4-(6-methylbenzo[d]oxazol-2-yl)-6,7-dihydro-1H-imidazo[4,5-c]pyridin-5(4H)-yl)methanone]: the half-maximal activity concentration (AC50) lay in the range of 0.5 to 1 µM.
With `Cn1cc(-c2ncc(C(=O)N3CCc4[nH]cnc4[C@@H]3c3nc4cc(F)ccc4o3)s2)cn1` [Example 10, (R)-(4-(5-fluorobenzo[d]oxazol-2-yl)-6,7-dihydro-1H-imidazo[4,5-c]pyridin-5(4H)-yl)(2-(1-methyl-1H-pyrazol-4-yl)thiazol-5-yl)methanone], the AC50 fell in the range of 1 to 5 µM.
In the case of `O=C(c1ocnc1C(F)F)N1CCc2[nH]cnc2[C@H]1c1nc2c(OC(F)(F)F)cccc2o1` [Example 536, (S)-(4-(difluoromethyl)oxazol-5-yl)(4-(4-(trifluoromethoxy)benzo[d]oxazol-2-yl)-6,7-dihydro-1H-imidazo[4,5-c]pyridin-5(4H)-yl)methanone], the AC50 is not above 0.5 µM.
For the molecule `O=C(c1nnc(-c2ccccn2)o1)N1CCc2[nH]cnc2[C@@H]1c1nc2ccccc2o1` [Example 584, (R)-(4-(benzo[d]oxazol-2-yl)-6,7-dihydro-1H-imidazo[4,5-c]pyridin-5(4H)-yl)(5-(pyridin-2-yl)-1,3,4-oxadiazol-2-yl)methanone], the half-maximal activity concentration (AC50) lay within 1 to 5 µM.
Turning to `O=C(c1ocnc1C(F)F)N1Cc2[nH]cnc2[C@H]1c1nc2ccccc2o1` [Example 921, (S)-(4-(benzo[d]oxazol-2-yl)-4,6-dihydropyrrolo[3,4-d]imidazol-5(1H)-yl)(4-(difluoromethyl)oxazol-5-yl)methanone], the half-maximal activity concentration (AC50) is 1 to 5 µM.
For the molecule `O=C(c1oc(C2(O)CC2)nc1C(F)F)N1CCc2[nH]cnc2[C@H]1c1nc2c(F)cccc2o1` [Example 215, (S)-(4-(difluoromethyl)-2-(1-hydroxycyclopropyl)oxazol-5-yl)(4-(4-fluorobenzo[d]oxazol-2-yl)-6,7-dihydro-1H-imidazo[4,5-c]pyridin-5(4H)-yl)methanone], the half-maximal activity concentration (AC50) is 0.5 to 1 µM.

Still in this experiment, the particulars now being: A375 cells expressing R408W PAH; 24 hrs with compound, then 20 μM sepiapterin and 800 μM 13C9,15N-Phenylalanine for 4 hours; 13C-Tyrosine by LC-MS; average where tested multiple times.
For `CC1CN(C(=O)c2oc(C(C)(C)O)nc2C(F)F)C(c2nc3cc(F)ccc3o2)c2nc[nH]c21` (stereo not drawn), the AC50 is 1 to 5 µM.
With `O=C(c1nnc(-c2ccncn2)o1)N1CCc2[nH]cnc2C1c1nc2cc(F)ccc2o1` (stereo not drawn), the concentration at half-maximal activity (AC50) was in the range of 1 to 5 µM.
Take `O=C(c1cnn2cc(CN3CC(F)C3)ccc12)N1CCc2[nH]cnc2C1c1nc2cc(F)ccc2o1` (stereo not drawn): the AC50 lay within 1 to 5 µM.
As to `O=C(c1nnc(-c2ccn[nH]2)o1)N1CCc2[nH]cnc2C1c1nc2ccc(F)cc2o1` (stereo not drawn), the concentration at half-maximal activity (AC50) was 1 to 5 µM.
On to `CC(=O)Cn1cc(C(=O)N2CCc3[nH]cnc3[C@H]2c2nc3cc(F)ccc3o2)cn1` (single isomer, unassigned), for which the AC50 is not below 5 µM.
Take `Cc1cccc2nc(C3c4nc[nH]c4CCN3C(=O)c3ccnn3C3CC3)oc12` (stereo not drawn): the AC50 was 1 to 5 µM.
